PubChem BioAssay AID328 (DTP/NCI, 2004)
Where “and” joins values, the source holds several entries; their conditions need not be identical. Equal entries are not always repeated. Inconclusive results and toxic doses are left out.

Test system: BDF1 mice, P388 leukemia ip, median survival T/C
Assay: NCI In Vivo Anticancer Drug Screen. Data for tumor model P388 Leukemia (intraperitoneal) in B6D2F1 (BDF1) mice
Conditions: endpoint: median survival time, higher = longer survival
How it was run: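 Compound-treated tumour-bearing mice were compared with vehicle-treated controls. Survival was recorded, and the value is the treated-group measurement divided by the control-group measurement (T/C).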

[1] = dose: 50.0 mg/kg/injection, schedule: Q01DX009 (ip), vehicle: saline with Tween-80
[2] = dose: 100.0 mg/kg/injection, schedule: Q01DX009 (ip), vehicle: saline with Tween-80
[3] = dose: 200.0 mg/kg/injection, schedule: Q01DX009 (ip), vehicle: saline with Tween-80
[4] = dose: 100.0 mg/kg/injection, schedule: Q04DX003 (ip), vehicle: saline with Tween-80
[5] = dose: 200.0 mg/kg/injection, schedule: Q04DX003 (ip), vehicle: saline with Tween-80
[6] = dose: 400.0 mg/kg/injection, schedule: Q04DX003 (ip), vehicle: saline with Tween-80

With COc1cc2c(c(OC)c1OC)-c1cc3c(cc1[C@@H](OC(C)=O)[C@@H]1COC(=O)[C@H]1C2)OCO3 the T/C (dose: 1.0 mg/kg/injection, schedule: Q01DX009 (ip), vehicle: saline + alcohol) was 118 % of control, the T/C (dose: 1.3 mg/kg/injection, schedule: Q01DX009 (ip), vehicle: saline) was 100 % of control and the T/C (dose: 1.77 mg/kg/injection, schedule: Q01DX009 (ip), vehicle: saline) was 100 % of control. For the same molecule, the T/C (dose: 2.0 mg/kg/injection, schedule: Q01DX009 (ip), vehicle: saline + alcohol) was 118 % of control, the T/C (dose: 2.0 mg/kg/injection, schedule: Q01DX009 (ip), vehicle: saline) was 100 % of control and the T/C (dose: 2.66 mg/kg/injection, schedule: Q01DX009 (ip), vehicle: saline) was 90 % of control. The T/C (dose: 3.0 mg/kg/injection, schedule: Q01DX009 (ip), vehicle: saline) was 104 % of control, the T/C (dose: 4.0 mg/kg/injection, schedule: Q01DX009 (ip), vehicle: saline + alcohol) was 118 % of control and the T/C (dose: 4.0 mg/kg/injection, schedule: Q01DX009 (ip), vehicle: saline) was 90 % of control. The T/C (dose: 6.0 mg/kg/injection, schedule: Q01DX009 (ip), vehicle: saline) was 100 % of control, the T/C (dose: 6.22 mg/kg/injection, schedule: Q01DX009 (ip), vehicle: saline + alcohol) was 116 % of control and the T/C (dose: 8.0 mg/kg/injection, schedule: Q01DX009 (ip), vehicle: saline + alcohol) was 113 % of control. For the same molecule, the T/C (dose: 8.9 mg/kg/injection, schedule: Q01DX009 (ip), vehicle: saline) was 104 % of control, the T/C (dose: 9.33 mg/kg/injection, schedule: Q01DX009 (ip), vehicle: saline + alcohol) was 112 % of control and the T/C (dose: 12.0 mg/kg/injection, schedule: Q01DX009 (ip), vehicle: saline) was 115 % of control. The T/C (dose: 13.3 mg/kg/injection, schedule: Q01DX009 (ip), vehicle: saline) was 113 % of control, the T/C (dose: 14.0 mg/kg/injection, schedule: Q01DX009 (ip), vehicle: saline + alcohol) was 120 % of control and the T/C (dose: 18.0 mg/kg/injection, schedule: Q01DX009 (ip), vehicle: saline) was 100 % of control. For the same molecule, the T/C (dose: 20.0 mg/kg/injection, schedule: Q01DX009 (ip), vehicle: saline) was 109 % of control and the T/C (dose: 21.0 mg/kg/injection, schedule: Q01DX009 (ip), vehicle: saline + alcohol) was 91 % of control.

In the case of O=C1C(Cl)=C(Cl)C(=O)C(/C=C/N2CCOCC2)=C1Cl, the T/C (dose: 6.25 mg/kg/injection, schedule: Q01DX001 (ip), vehicle: saline with Tween-80) is reported as 109 % of control, the T/C (dose: 12.5 mg/kg/injection, schedule: Q01DX001 (ip), vehicle: saline with Tween-80) is reported as 117 % of control and the T/C (dose: 25.0 mg/kg/injection, schedule: Q01DX001 (ip), vehicle: saline with Tween-80) is reported as 104 % of control. The T/C (dose: 50.0 mg/kg/injection, schedule: Q01DX001 (ip), vehicle: saline with Tween-80) was 113 % of control.

S=c1[nH]nc2ccccn12 was tested, and the T/C [1] was 102 % of control, the T/C [2] was 100 % of control and the T/C [3] was 102 % of control.

In the case of NC(=O)C(CC(=O)OCc1ccccc1)NC(=O)OCc1ccccc1 (stereo not drawn), the T/C [4] is reported as 100 % of control, the T/C [5] is reported as 95 % of control and the T/C [6] is reported as 104 % of control.

In the case of COC(=O)c1c(C)ccc2c(O)c3c(cc12)C(=O)c1c2c(cc(O)c1C3=O)C1(C)OC(C)(O2)C(O)C(N(C)C)C1O (stereo not drawn), the T/C (dose: 70.0 mg/kg/injection, schedule: Q01DX009 (ip), vehicle: Klucel (hydroxypropylcellulose) (HPC)) is reported as 150 % of control and the T/C (dose: 140.0 mg/kg/injection, schedule: Q01DX009 (ip), vehicle: Klucel (hydroxypropylcellulose) (HPC)) is reported as 111 % of control.

For CS(=O)(=O)N(c1ccccc1[N+](=O)[O-])S(C)(=O)=O, the T/C [2] was 109 % of control, the T/C [4] was 87 % of control and the T/C [3] was 100 % of control. The T/C [5] was 100 % of control, the T/C (dose: 400.0 mg/kg/injection, schedule: Q01DX009 (ip), vehicle: saline with Tween-80) was 104 % of control and the T/C [6] was 104 % of control.

In the case of CCOC(=O)CCSC(C)(C)C(=O)OCC, the T/C (dose: 100.0 mg/kg/injection, schedule: Q01DX009 (ip), vehicle: Klucel (hydroxypropylcellulose) (HPC)) is reported as 100 % of control, the T/C (dose: 100.0 mg/kg/injection, schedule: Q04DX003 (ip), vehicle: Klucel (hydroxypropylcellulose) (HPC)) is reported as 104 % of control and the T/C (dose: 200.0 mg/kg/injection, schedule: Q01DX009 (ip), vehicle: Klucel (hydroxypropylcellulose) (HPC)) is reported as 105 % of control. The T/C (dose: 200.0 mg/kg/injection, schedule: Q04DX003 (ip), vehicle: Klucel (hydroxypropylcellulose) (HPC)) was 104 % of control, the T/C (dose: 400.0 mg/kg/injection, schedule: Q01DX009 (ip), vehicle: Klucel (hydroxypropylcellulose) (HPC)) was 105 % of control and the T/C (dose: 400.0 mg/kg/injection, schedule: Q04DX003 (ip), vehicle: Klucel (hydroxypropylcellulose) (HPC)) was 100 % of control.

With CC(C)=CCC/C(C)=C/Cn1cnc2c(ncn2C2OC(CO)C(O)C2O)c1=O (stereo not drawn) the T/C (dose: 12.5 mg/kg/injection, schedule: Q04DX003 (ip), vehicle: saline) was 110 % of control, the T/C (dose: 25.0 mg/kg/injection, schedule: Q04DX003 (ip), vehicle: saline) was 105 % of control and the T/C (dose: 50.0 mg/kg/injection, schedule: Q04DX003 (ip), vehicle: saline) was 114 % of control.

In the case of NC(=S)N/N=C/c1ccc(NC(=O)c2ccccc2C(=O)O)cc1, the T/C (dose: 25.0 mg/kg/injection, schedule: Q01DX009 (ip), vehicle: saline with Tween-80) is reported as 95 % of control, the T/C [1] is reported as 87 % of control and the T/C [2] is reported as 100 % of control.

For OCCN1CCN(CC/C=C2/c3ccccc3Sc3ccc(C(F)(F)F)cc32)CC1, the T/C (dose: 5.0 mg/kg/injection, schedule: Q01DX009 (ip), vehicle: saline) was 101 % of control, the T/C (dose: 10.0 mg/kg/injection, schedule: Q01DX009 (ip), vehicle: saline) was 101 % of control and the T/C (dose: 80.0 mg/kg/injection, schedule: Q04DX003 (ip), vehicle: saline) was 97 % of control.

For O=C(O)C1=CC(O)C(O)C(O)C1 (stereo not drawn), the T/C (dose: 50.0 mg/kg/injection, schedule: Q01DX009 (ip), vehicle: saline) was 87 % of control, the T/C (dose: 100.0 mg/kg/injection, schedule: Q01DX009 (ip), vehicle: saline) was 100 % of control and the T/C (dose: 100.0 mg/kg/injection, schedule: Q04DX003 (ip), vehicle: saline sonified) was 100 % of control. For the same molecule, the T/C (dose: 200.0 mg/kg/injection, schedule: Q01DX009 (ip), vehicle: saline) was 91 % of control, the T/C (dose: 200.0 mg/kg/injection, schedule: Q04DX003 (ip), vehicle: saline sonified) was 100 % of control and the T/C (dose: 400.0 mg/kg/injection, schedule: Q04DX003 (ip), vehicle: saline sonified) was 100 % of control.

With CC(=O)OC1C(C=C(C)C)OC2CC3(C)C4=C(CCC3(C)C2C1C)C1(C)CCC(O)C(C)(C)C1CC4 (stereo not drawn) the T/C (dose: 50.0 mg/kg/injection, schedule: Q01DX010 (sc), vehicle: steriod suspending solution) was 90 % of control, the T/C (dose: 100.0 mg/kg/injection, schedule: Q01DX010 (sc), vehicle: steriod suspending solution) was 90 % of control and the T/C (dose: 200.0 mg/kg/injection, schedule: Q01DX010 (sc), vehicle: steriod suspending solution) was 90 % of control. The T/C (dose: 400.0 mg/kg/injection, schedule: Q01DX010 (sc), vehicle: steriod suspending solution) was 86 % of control.

For CCC1OC(=O)CC(O)C(C)C(OC2OC(C)C(O)C(N(C)C)C2O)C(CC=O)CC(C)C(=O)/C=C/C2(C)OC2C1C (stereo not drawn), the T/C (dose: 150.0 mg/kg/injection, schedule: Q01DX009 (ip), vehicle: Klucel (hydroxypropylcellulose) (HPC)) was 92 % of control.

For COC(=O)C(Cc1cnc2nc(N)nc(N)c2n1)C(=O)OC, the T/C (dose: 1.56 mg/kg/injection, schedule: Q01DX009 (ip), vehicle: water) was 100 % of control, the T/C (dose: 3.13 mg/kg/injection, schedule: Q01DX009 (ip), vehicle: water) was 90 % of control and the T/C (dose: 6.25 mg/kg/injection, schedule: Q01DX009 (ip), vehicle: water) was 100 % of control. The T/C (dose: 12.5 mg/kg/injection, schedule: Q01DX009 (ip), vehicle: water) was 100 % of control and the T/C (dose: 25.0 mg/kg/injection, schedule: Q01DX009 (ip), vehicle: water) was 111 % of control.

COc1cccc2c1C(=O)c1c(O)c3c(c(O)c1C2=O)C[C@@](O)(C(C)=O)C[C@@H]3OC1CC(NC=O)C(O)C(C)O1 (stereo partly drawn) was tested, and the T/C (dose: 0.25 mg/kg/injection, schedule: Q01DX009 (ip), vehicle: water) was 108 % of control and 110 % of control, the T/C (dose: 0.5 mg/kg/injection, schedule: Q01DX009 (ip), vehicle: water) was 110 % of control and 117 % of control and the T/C (dose: 1.0 mg/kg/injection, schedule: Q01DX009 (ip), vehicle: water) was 107 % of control. For the same molecule, the T/C (dose: 2.0 mg/kg/injection, schedule: Q01DX009 (ip), vehicle: water) was 186 % of control, the T/C (dose: 4.0 mg/kg/injection, schedule: Q01DX009 (ip), vehicle: water) was 205 % of control and the T/C (dose: 8.0 mg/kg/injection, schedule: Q01DX009 (ip), vehicle: water) was 169 % of control.

With c1cc(OCC2CO2)ccc1OCC1CO1 (stereo not drawn) the T/C (dose: 78.0 mg/kg/injection, schedule: Q04DX003 (ip), vehicle: saline with Tween-80) was 119 % of control, the T/C (dose: 177.0 mg/kg/injection, schedule: Q04DX003 (ip), vehicle: saline with Tween-80) was 153 % of control and the T/C (dose: 600.0 mg/kg/injection, schedule: Q04DX003 (ip), vehicle: saline with Tween-80) was 122 % of control.
